Drawing on US20230074545A1, “TREATMENT OF CANCER WITH CDK12/13 INHIBITORS” (Kinnate Biopharma Inc., priority 2019, published 2023), this text covers IC50, inhibition and T/C for two compounds.

Test [1] has as its system RNA polymerase II. Nature of the test: Inhibition of phosphorylation of RNA polymerase II in NCI-H82 cells. The test is classed as cell-based. The settings on record: Homo sapiens, 2 hours, phosphorylated/total RNA polymerase II. As to the method:
CDK12 and CDK13 phosphorylate RNA polymerase II. The ability of compound 1 to inhibit phosphorylation of RNA polymerase II was analyzed in NCI-H82 cells. 200,000 cells were plated in each well of a 96 well MSD plate. Cells were treated with compound 1, THZ531 (a positive control), or E9 at concentrations between 4 μM to 126.4 pM (0.5 log serial dilutions) for 2 hours. THZ531 and E9 are further discussed in Gao et al, Cell Chemical Biology 2017. The amount of phosphorylated RNA polymerase II and the total amount of RNA polymerase II was analyzed using antibodies. The values were normalized by taking the ratio of the phosphorylated RNA polymerase II to the total RNA polymerase II. As depicted in FIG. 3A (THZ531), FIG. 3B (Compound 1), and Table 6, increasing the concentration of compound 1 results in a dose-specific increase in the inhibition of phosphorylation of RNA polymerase II.

Test [2] deals with T1, PLK1 (Homo sapiens, UniProt P53350).
T1 construct: either as full-length or enzymatically active fragments; purchased ProQinase GmbH (Reaction Biology)
The test is described as follows: Radiometric kinase panel. The test is classed as biochemical. As to the method:
(§1) The compounds 1-5 (see Table 1) were assayed for kinase activity at ProQinase (ProQinase GmbH, Reaction Biology; Freiburg, Germany) using their commercially available radiometric kinase assay services. Briefly, the compounds were provided as solids and were dissolved to 1×10^−03 M/100% DMSO stock solutions on the day of assay. All protein kinases were provided by ProQinase and were expressed in Sf9 insect cells or in E. coli as recombinant GST-fusion proteins or His-tagged proteins, either as full-length or enzymatically active fragments. All kinases were produced from human cDNAs and purified by either GSH-affinity chromatography or immobilized metal. The purity of the protein kinases was examined by SDS-PAGE/Coomassie staining, the identity was checked by mass spectroscopy. A radiometric protein kinase assay (^33PanQinase® Activity Assay) was used for measuring the kinase activity of the protein kinase. All kinase assays were performed in 96-well FlashPlates™ from PerkinElmer (Boston, Mass., USA) in a 50 microliter reaction volume. The reaction cocktail was pipetted in four steps in the following order: 1) 25 microliter of assay buffer (standard buffer/[gamma-^33P]-ATP); 2) 10 microliter of ATP solution (in H2O); 3) 5 microliter of test compound (in 10% DMSO); 4) 10 microliter of enzyme/substrate mixture.
(§2) Compound 4 was analyzed for selectivity against a panel of other kinases at ProQinase using their commercially available radiometric kinase assay services and the methods described in Example 1.

Test [3] deals with T2, MAP3K1 (Homo sapiens, UniProt Q13233).
T2 construct: either as full-length or enzymatically active fragments; purchased ProQinase GmbH (Reaction Biology); host or cells: Sf9 insect cells or E. coli (not specified per kinase)
Nature of the test: Radiometric kinase panel. The test is classed as biochemical. Here is the method:
as §1, §2

Test [4] addresses T3, NIK (Homo sapiens, UniProt Q99558).
T3 construct: purchased ProQinase GmbH (Reaction Biology)
The test is described as follows: Radiometric kinase panel. The format is biochemical. As to the method:
as §1, §2

The target in test [5] is T4, EPHA3 (Homo sapiens, UniProt P29320).
T4 construct: either as full-length or enzymatically active fragments; purchased ProQinase GmbH (Reaction Biology)
The test is described as follows: Radiometric kinase panel. The test is classed as biochemical. Here is the method:
as §1, §2

Test [6] has as its target T5, BRSK1 (Homo sapiens, UniProt Q8TDC3).
T5 construct: either as full-length or enzymatically active fragments; purchased ProQinase GmbH (Reaction Biology)
The test is described as follows: Radiometric kinase panel. The test is classed as biochemical. Here is the method:
as §1, §2

Test [7] deals with T6, LTK (Homo sapiens, UniProt P29376).
T6 construct: purchased ProQinase GmbH (Reaction Biology); host or cells: Sf9 insect cells or E. coli (not specified per kinase)
Nature of the test: Radiometric kinase panel. The format is biochemical. As to the method: as §1, §2

In test [8] the target is T7, MST1 (Homo sapiens, UniProt Q13043).
T7 construct: purchased ProQinase GmbH (Reaction Biology); host or cells: Sf9 insect cells or E. coli (not specified per kinase)
Nature of the test: Radiometric kinase panel. The format is biochemical. As to the method:
as §1, §2

Test [9] has as its target T8, ACVR1 (Homo sapiens, UniProt Q04771).
T8 construct: purchased ProQinase GmbH (Reaction Biology)
The test is described as follows: Radiometric kinase panel. The test is classed as biochemical. Here is the method: as §1, §2

Test [10] has as its target T9, CDC42BPA (Homo sapiens, UniProt Q5VT25).
T9 construct: either as full-length or enzymatically active fragments; purchased ProQinase GmbH (Reaction Biology); host or cells: Sf9 insect cells or E. coli
Nature of the test: Radiometric kinase panel. The test is classed as biochemical. Here is the method: as §1, §2

For test [11], the target named is T10, DMPK (Homo sapiens, UniProt Q09013).
T10 construct: either as full-length or enzymatically active fragments; purchased ProQinase GmbH (Reaction Biology); host or cells: Sf9 insect cells or E. coli
The test is described as follows: Radiometric kinase panel. The test is classed as biochemical. Here is the method: as §1, §2

Test [12] concerns the target T11, ZAP70 (Homo sapiens, UniProt P43403).
T11 construct: either as full-length or enzymatically active fragments; purchased ProQinase GmbH (Reaction Biology)
Nature of the test: Radiometric kinase panel. The format is biochemical. Here is the method: as §1, §2

In test [13] the test system is OVCAR-3 tumors. The test is described as follows: OVCAR-3 mouse xenograft model of ovarian cancer. The test is classed as in vivo, NOD SCID female mice. From the text:
To test the efficacy of the compounds in vivo, studies were done in mouse xenografts. For all studies, general procedures for animal care and housing were done in accordance with the standard, Commission on Life Sciences, National Research Council, Standard operating procedures (SOPs) of Pharmaron, Inc (Beijing, China). The mice were kept in laminar flow rooms at constant temperature and humidity with 3-5 mice in each cage with bedding changed once weekly. Animals were housed in polycarbonate cage which is in the size of 300×180×150 mm^3 and in an environmentally monitored, well-ventilated room maintained at a temperature of (22±3° C.) and a relative humidity of 40%-70% on a 12:12 light:dark cycle with full spectrum lighting. Each animal was assigned an identification number; the following identification method will be applied. Cage cards were labeled with such information as study number, group, sex, dose, animal number, initiation date, study director and telephone number. Animals were identified by ear coding. Animals had free access to irradiation sterilized dry granule food during the entire study period except for time periods specified by the protocol.
For the OVCAR-3 study, NOD SCID female mice bearing the OVCAR-3 tumors were randomized into 5 groups (n=9 mice per group) 17 day post tumor implantation with an average tumor volume of 150 mm^3. Each group received either vehicle (3% DMSO, 97.0% (20% HP-β-CD in water) or 5.0, 10, 20 and 25.0 mg/kg of compound 4 biweekly (Monday, Thursday), a total of 4 doses were intravenously administered through the course of 14 day efficacy study. Immediately after every treatment dose, a saline flush of 0.1 mL were also administered. One last dose was intravenously administered on Day 15 for end of study PK plasma and PD tumor collections as indicated in the protocol. Tumor volumes were measured by caliper 2 times a week and body weights of all animals were recorded throughout the study.
Protocol-required measurements and observations were recorded manually onto excel spread sheets. All statistical tests were conducted, and the level of significance was set at 5% or P<0.05. The group means, standard deviation was calculated for all measurement parameters as study designed. Two-way RM ANOVA followed by Tukeys post hoc comparisons of the means was utilized for this study.

T1 sequence (P53350 whole entry, the tested form may be a part): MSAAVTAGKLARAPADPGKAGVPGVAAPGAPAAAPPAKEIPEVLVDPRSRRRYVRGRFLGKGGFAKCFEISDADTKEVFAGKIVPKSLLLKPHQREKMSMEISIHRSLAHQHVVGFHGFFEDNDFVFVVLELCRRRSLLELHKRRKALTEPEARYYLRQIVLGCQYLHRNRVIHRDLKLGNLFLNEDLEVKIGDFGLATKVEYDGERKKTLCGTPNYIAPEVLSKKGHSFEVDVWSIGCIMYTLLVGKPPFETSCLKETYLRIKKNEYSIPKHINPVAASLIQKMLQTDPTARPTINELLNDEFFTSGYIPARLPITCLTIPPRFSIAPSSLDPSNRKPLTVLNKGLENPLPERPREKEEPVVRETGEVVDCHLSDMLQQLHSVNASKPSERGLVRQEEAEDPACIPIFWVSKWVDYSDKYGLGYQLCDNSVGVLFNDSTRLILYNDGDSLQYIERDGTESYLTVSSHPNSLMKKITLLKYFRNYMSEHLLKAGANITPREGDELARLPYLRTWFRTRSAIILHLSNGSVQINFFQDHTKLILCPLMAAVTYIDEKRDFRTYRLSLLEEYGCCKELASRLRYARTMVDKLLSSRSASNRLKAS
T5 sequence (Q8TDC3 whole entry, the tested form may be a part): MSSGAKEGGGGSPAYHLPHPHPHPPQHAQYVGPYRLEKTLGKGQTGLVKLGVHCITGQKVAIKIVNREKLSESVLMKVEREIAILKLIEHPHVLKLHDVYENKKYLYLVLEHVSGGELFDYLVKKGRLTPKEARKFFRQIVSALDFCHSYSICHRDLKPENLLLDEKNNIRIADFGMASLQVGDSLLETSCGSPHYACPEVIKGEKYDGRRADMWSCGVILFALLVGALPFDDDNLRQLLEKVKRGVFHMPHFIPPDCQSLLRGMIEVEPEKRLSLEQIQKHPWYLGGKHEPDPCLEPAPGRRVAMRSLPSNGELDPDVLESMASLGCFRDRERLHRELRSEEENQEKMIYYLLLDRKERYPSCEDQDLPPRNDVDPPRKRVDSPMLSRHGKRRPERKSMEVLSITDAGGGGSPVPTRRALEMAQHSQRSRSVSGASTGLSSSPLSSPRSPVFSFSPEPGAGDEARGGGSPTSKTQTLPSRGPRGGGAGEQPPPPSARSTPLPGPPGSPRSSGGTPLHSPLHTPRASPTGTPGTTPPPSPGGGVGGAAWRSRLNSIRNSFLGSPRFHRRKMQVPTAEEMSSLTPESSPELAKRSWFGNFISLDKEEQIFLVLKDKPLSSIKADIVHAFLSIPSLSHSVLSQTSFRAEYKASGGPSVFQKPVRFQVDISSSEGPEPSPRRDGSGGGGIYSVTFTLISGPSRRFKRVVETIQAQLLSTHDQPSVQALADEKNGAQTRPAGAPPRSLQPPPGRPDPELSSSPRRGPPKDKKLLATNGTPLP
T9 sequence (Q5VT25 whole entry, the tested form may be a part): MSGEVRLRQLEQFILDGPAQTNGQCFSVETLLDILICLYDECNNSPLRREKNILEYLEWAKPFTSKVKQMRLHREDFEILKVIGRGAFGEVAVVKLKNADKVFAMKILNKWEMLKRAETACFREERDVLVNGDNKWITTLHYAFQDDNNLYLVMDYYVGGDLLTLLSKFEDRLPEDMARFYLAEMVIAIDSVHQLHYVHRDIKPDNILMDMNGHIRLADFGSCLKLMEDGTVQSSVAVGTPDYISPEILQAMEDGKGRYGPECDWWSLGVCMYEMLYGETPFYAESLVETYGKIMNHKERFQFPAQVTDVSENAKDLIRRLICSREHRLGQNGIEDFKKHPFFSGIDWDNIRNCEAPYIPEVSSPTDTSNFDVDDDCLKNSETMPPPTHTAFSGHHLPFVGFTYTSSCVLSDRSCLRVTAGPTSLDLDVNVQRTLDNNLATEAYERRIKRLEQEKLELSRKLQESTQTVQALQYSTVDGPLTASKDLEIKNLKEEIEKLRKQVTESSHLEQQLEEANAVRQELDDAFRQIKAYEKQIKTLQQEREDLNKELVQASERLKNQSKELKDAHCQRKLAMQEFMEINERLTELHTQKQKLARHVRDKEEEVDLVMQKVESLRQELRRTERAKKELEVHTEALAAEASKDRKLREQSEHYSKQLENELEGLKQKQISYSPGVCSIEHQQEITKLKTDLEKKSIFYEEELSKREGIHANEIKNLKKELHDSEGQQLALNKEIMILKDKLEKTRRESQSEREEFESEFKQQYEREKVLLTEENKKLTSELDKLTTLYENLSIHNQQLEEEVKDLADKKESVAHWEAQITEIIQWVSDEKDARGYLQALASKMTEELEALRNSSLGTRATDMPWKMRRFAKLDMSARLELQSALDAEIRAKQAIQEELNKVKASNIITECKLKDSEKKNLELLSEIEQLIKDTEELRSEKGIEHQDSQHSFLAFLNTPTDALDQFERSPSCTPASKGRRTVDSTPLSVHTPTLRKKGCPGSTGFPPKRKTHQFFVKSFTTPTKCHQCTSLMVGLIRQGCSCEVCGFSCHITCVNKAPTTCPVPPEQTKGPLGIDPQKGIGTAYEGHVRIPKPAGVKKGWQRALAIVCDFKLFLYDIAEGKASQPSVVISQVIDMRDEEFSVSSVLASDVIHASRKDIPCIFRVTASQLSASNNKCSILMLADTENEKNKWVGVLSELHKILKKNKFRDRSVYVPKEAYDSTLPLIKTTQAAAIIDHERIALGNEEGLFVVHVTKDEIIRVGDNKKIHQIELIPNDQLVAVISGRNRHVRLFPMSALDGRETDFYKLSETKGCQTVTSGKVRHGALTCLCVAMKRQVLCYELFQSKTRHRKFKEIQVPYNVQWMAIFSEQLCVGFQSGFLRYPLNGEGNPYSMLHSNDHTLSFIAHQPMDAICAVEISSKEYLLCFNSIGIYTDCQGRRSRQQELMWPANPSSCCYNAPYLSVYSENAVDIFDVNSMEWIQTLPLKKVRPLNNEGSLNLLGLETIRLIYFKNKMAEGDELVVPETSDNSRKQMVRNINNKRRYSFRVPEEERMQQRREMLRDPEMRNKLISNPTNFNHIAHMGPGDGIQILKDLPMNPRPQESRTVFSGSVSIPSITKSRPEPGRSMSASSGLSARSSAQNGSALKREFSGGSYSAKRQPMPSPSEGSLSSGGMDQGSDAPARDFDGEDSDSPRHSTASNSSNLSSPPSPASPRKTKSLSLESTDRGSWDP
T10 sequence (Q09013 whole entry, the tested form may be a part): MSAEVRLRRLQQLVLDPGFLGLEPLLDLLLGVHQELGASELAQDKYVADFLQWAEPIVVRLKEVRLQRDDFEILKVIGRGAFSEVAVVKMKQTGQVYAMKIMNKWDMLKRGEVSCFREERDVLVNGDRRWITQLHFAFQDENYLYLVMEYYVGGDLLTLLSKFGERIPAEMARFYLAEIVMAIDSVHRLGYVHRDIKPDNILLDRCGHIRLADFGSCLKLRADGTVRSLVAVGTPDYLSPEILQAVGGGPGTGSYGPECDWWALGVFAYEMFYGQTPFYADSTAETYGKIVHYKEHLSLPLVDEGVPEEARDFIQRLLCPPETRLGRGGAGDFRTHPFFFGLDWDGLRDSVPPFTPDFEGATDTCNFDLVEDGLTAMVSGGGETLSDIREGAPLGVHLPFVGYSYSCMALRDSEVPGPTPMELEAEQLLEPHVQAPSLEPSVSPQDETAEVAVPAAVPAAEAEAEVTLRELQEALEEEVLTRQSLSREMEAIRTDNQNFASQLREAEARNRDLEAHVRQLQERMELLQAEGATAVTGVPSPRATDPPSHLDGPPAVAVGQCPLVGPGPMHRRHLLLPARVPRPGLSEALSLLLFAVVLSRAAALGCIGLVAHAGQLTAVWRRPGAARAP
T11 sequence (P43403 whole entry, the tested form may be a part): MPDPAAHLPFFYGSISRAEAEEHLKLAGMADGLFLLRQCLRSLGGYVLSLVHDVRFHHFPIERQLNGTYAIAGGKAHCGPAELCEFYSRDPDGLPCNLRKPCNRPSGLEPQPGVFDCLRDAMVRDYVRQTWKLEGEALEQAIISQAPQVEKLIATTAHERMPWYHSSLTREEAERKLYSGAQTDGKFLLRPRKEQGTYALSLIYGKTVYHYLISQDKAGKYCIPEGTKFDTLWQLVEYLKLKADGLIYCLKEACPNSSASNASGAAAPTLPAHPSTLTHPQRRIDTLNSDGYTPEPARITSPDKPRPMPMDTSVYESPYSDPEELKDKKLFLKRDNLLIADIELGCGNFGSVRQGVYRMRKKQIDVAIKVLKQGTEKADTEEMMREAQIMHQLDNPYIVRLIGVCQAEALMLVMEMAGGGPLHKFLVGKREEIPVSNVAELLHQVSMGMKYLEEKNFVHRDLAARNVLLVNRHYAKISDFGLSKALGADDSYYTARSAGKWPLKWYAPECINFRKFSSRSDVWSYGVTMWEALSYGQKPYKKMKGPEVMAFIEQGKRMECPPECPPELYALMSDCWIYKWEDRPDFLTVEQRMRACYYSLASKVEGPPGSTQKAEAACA
T8 sequence (Q04771 21-509): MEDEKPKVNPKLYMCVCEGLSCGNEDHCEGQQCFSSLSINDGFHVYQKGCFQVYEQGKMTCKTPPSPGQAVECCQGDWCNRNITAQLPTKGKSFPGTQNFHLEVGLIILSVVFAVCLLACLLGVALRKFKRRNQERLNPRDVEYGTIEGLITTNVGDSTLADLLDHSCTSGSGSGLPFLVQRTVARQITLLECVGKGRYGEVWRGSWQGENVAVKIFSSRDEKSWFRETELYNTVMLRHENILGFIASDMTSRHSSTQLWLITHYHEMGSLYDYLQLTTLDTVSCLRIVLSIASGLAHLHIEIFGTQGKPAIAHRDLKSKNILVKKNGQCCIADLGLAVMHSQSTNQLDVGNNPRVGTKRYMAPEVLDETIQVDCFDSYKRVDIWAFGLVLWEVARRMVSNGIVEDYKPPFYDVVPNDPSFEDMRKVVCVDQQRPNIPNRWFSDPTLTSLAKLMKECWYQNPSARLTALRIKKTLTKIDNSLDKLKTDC

One may read the IC50 as the concentration that inhibits the measured activity by half. Low readings indicate greater potency, high ones weaker potency. In test [1], `C=CC(=O)Nc1ccc(C(=O)N2CC[C@@H](Nc3ncc(Cl)c(OC)n3)C2)cc1` [Compound 1, (R)-N-(4-(3-((5-chloro-4-methoxypyrimidin-2-yl)amino)pyrrolidine-1-carbonyl)phenyl)acrylamide] gave an IC50 of 12.5 nM.
The inhibition is the change of the read-out against control, counted positive when it falls. For the compound `C=CC(=O)Nc1ccc(C(=O)N2CC[C@@H](Nc3ncc(C#N)cn3)C2)cc1` [Compound 4, (R)-N-(4-(3-((5-cyanopyrimidin-2-yl)amino)pyrrolidine-1-carbonyl)phenyl)acrylamide], the inhibition at 1 µM in test [2] was 7%; in test [3], 9%; in test [4], -2%; in test [5], 6%; in test [6], -4%; in test [7] it was 1%. Further, the inhibition at 1 µM is 1% in test [8]; -1% in [9]; -16% in [10]; 11% in test [11]; -6% in test [12]. The T/C in test [13] (5.0 mg/kg intravenously biweekly for 14 days, compared to vehicle control) is recorded as 36%; in [13] (10 mg/kg intravenously biweekly for 14 days, compared to vehicle control), 13%; in test [13] (20 mg/kg intravenously biweekly for 14 days), −7%; in [13] (25 mg/kg intravenously biweekly for 14 days) it was −9%.
